Measurements from article PMC9767854, “Discovery and mechanism studies of a novel ATG4B inhibitor Ebselen by drug repurposing and its anti-colorectal cancer effects in mice” (Cell & Bioscience, 2022).

How the values were obtained:
ATG4B [1] = target: T1, ATG4B (Homo sapiens, UniProt Q9Y4P1); assay: ATG4B oligomerization by non-reducing electrophoresis; type: biochemical; conditions: ATG4B 5 μM; Ebselen 5, 25, 50 μM or FMK-9a 50 μM; 0.5, 1, 3 h
T1 construct: 6xHis; made in house; host or cells: E. coli BL21(DE3)
T1 sequence (Q9Y4P1 1-393): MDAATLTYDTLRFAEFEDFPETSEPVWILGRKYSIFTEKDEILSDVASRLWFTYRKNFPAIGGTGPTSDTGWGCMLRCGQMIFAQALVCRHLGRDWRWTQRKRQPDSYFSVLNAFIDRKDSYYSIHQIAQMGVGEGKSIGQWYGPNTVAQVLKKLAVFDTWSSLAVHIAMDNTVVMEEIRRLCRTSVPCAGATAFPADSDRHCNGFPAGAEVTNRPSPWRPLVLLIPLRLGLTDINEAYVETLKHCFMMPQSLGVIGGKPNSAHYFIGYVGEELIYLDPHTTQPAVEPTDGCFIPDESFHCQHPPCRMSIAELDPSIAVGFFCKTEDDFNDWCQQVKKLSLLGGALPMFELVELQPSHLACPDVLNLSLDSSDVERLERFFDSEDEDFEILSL
From the text: The aggregates formed could be reversibly regulated by a reducing agent, because an assay to add dithiothreitol (DTT) into the reaction was operated. […] Furthermore, we also evaluated the redox properties of analogues on ATG4B.

HCT116 = assay: Immunofluorescence of endogenous LC3B dots; type: cell-based; conditions: Ebselen 10 μM, CQ 40 μM
Procedure: Fig. 5 Ebselen suppresses autophagy flux via inhibition of ATG4B. A, B HeLa cells were treated with Torin 1 (2 μM) or CQ (40 μM) and detected by western blot. C, D SW620 cells were transduced with sgCon and sgATG4B lentiviruses, respectively. Then cells were treated with CQ (40 μM) and detected by western blot. E, F HCT116 were treated with Ebselen (5 and 10 μM) or CQ (40 μM) and subjected to western blot. G, H SW620 were treated with Ebselen (10 μM) or CQ (40 μM) and western blotting was carried out to detect the protein levels. I, J Immunofluorescence analysis of endogenous LC3B in HCT116 treated with Ebselen (10 μM) or CQ (40 μM). Dots numbers for LC3B were derived from counting at least 20 cells and 5 fields from three independent replicated experiments. Bar = 10 μm. K HCT116 cells were treated with 2 μM Torin 1 in the presence or absence of 10 μM Ebselen for 12 h, then the level ratio of long-lived proteins was measured by flow cytometry
Immunofluorescence staining was carried out as described before. Respectively, cells seeded on glass-bottom 35-mm dishes (SORFA bio, 201,200) were washed with PBS and fixed for 20 min at room temperature with 4% paraformaldehyde after related administration. Subsequently, dishes were permeabilized with 0.3% Triton X-100 in PBS, and washed to be blocked in goat serum (Boster, AR1009) for 1 h before incubated with primary antibody overnight at 4℃. […]

ATG4B [2] = target: T1, ATG4B; assay: Denaturing mass spectrometry of covalent binding; conditions: ATG4B 20 μM, compound 60 μM, 1 h at 37 °C; shift of 275 Da on 57,200 Da form
Procedure: Analysis of covalent binding between protein and ligand was performed by denaturing mass spectrometry. ATG4B WT and related mutant (20 μM) were incubated with or without compound (60 μM) in phosphate buffer for 1 h at 37℃. Then the samples were desalted using ultrafiltration spin columns (0.5 ml, 10 kDa MWCO, PES, Sartorius) and buffer-exchanged into Milli-Q water. Subsequently, samples were diluted containing 0.1% v/v formic acid before being subjected to denaturing electrospray ionization mass spectrometry analysis (TOF, Waters, SYNAPT G2-Si). Spectrum data were processed with MassLynx (Waters).

WT and ATG4B KO HCT116 = assay: Apoptosis detection by cleaved PARP western blot; type: cell-based; conditions: low or high concentrations of Ebselen; STS 2 μM; 6 h
[3] = test system: SW620 cell-based xenografts; assay: SW620 subcutaneous xenograft tumor model; type: in vivo, BALB/c-nu/nu mice
Procedure: Fig. 7 Ebselen suppresses colorectal cancer tumor growth. A A brief diagram of the animal experiment for subcutaneous xenografted tumor model. 2 × 10^6 (2e^6) SW620 cells were xenografted into BALB/c-nu/nu mice by subcutaneous injection (s.c.). After 10 days, mice were injected intraperitoneally (i.p.) with indicated doses of Ebselen every two days, and monitoring of tumor volume and body weight changes were performed. B–D Representative tumor images and tumor weight at the end time point were captured from SW620 cell-based xenografts. Mean tumor weight ± SEM (C) and mean tumor volume ± SEM (D) were shown. E The inhibitory effect of ATG4 in xenografted tumors was detected by FRET assay. F, I The protein level of autophagy and apoptosis in xenografted tumors were detected by western blot. Representative results were shown and the statistical results of each group were obtained from seven mice. J, K The immunohistochemistry analysis of Ki67 in xenografted tumors (group vehicle and Ebselen 10 mg/kg). Bar = 20 μm. […]
Four- to six-weeks-old BALB/C nu/nu female mice purchased from the Experimental Animal Center of Sun Yat-Sen University, were approved by the Animal Ethics Committee at Sun Yat-sen University and kept in specific-pathogen-free environment. […] Tumor volume was measured by calipers and calculated using the equation: 0.5 × length × width^2. […]

xenografted tumors = assay: Autophagy, apoptosis and Ki67 markers in xenografted tumors; type: in vivo, BALB/c-nu/nu mice
Procedure: Fig. 7 Ebselen suppresses colorectal cancer tumor growth. A A brief diagram of the animal experiment for subcutaneous xenografted tumor model. 2 × 10^6 (2e^6) SW620 cells were xenografted into BALB/c-nu/nu mice by subcutaneous injection (s.c.). After 10 days, mice were injected intraperitoneally (i.p.) with indicated doses of Ebselen every two days, and monitoring of tumor volume and body weight changes were performed. B–D Representative tumor images and tumor weight at the end time point were captured from SW620 cell-based xenografts. Mean tumor weight ± SEM (C) and mean tumor volume ± SEM (D) were shown. E The inhibitory effect of ATG4 in xenografted tumors was detected by FRET assay. F, I The protein level of autophagy and apoptosis in xenografted tumors were detected by western blot. Representative results were shown and the statistical results of each group were obtained from seven mice. J, K The immunohistochemistry analysis of Ki67 in xenografted tumors (group vehicle and Ebselen 10 mg/kg). Bar = 20 μm. The positive Ki67 area rate was obtained from the ratio of positive Ki67 area to total cell area by Image J
(§1) Four- to six-weeks-old BALB/C nu/nu female mice purchased from the Experimental Animal Center of Sun Yat-Sen University, were approved by the Animal Ethics Committee at Sun Yat-sen University and kept in specific-pathogen-free environment. Approximately 2 × 10^6 SW620 cells or 1 × 10^7 HCT116 cells were injected subcutaneously into the dorsal flank on the right side of the mice. Different groups were divided randomly when the tumor volume was approximately 60–80 mm^3, before drug administration intraperitoneally (i.p.). Tumor volume was measured by calipers and calculated using the equation: 0.5 × length × width^2. At the end of the experiments, the mice were sacrificed and tumors were dissected and weighed. In particular, we employed Servicebio (Wuhan, China) to carry out H&E staining and immunohistochemistry assay.

HCT116 based xenograft = assay: HCT116 subcutaneous xenograft tumor model; type: in vivo, BALB/c-nu/nu mice; conditions: i.p., compared with SW620 xenografts
Procedure: as §1
Supplementary file 13578_2022_944_MOESM1_ESM.docx: Additional file 1: Figure S1. Screening of ATG4B inhibitors based on the approved drugs library by FRET assay. […] (D) Candidate compound number and name correspondence table, and IC50 calculation of nine commercially available compounds for ATG4B by FRET assay. Figure S2. […] Figure S3. […] Figure S5. […] Figure S6.

[4] = test system: ATG4 (mainly ATG4B) in tumors; assay: ATG4 activity in xenografted tumors by FRET assay; type: in vivo, BALB/c-nu/nu mice; conditions: SW620 xenografts, 5, 10, 20 mg/kg
Procedure: FRET-based assay for ATG4B or ATG4A activity was operated as previously described [5, 17]. Briefly, Recombinant protein ATG4B (0.75 μg/ml) or ATG4A (5 μg/ml) was incubated with compounds in reaction buffer (150 mM NaCl, 20 mM Tris–HCl, pH 8.0, 0.1% CHAPS, 1 mM EDTA) at 37 °C. After 30 min, substrate FRET-GATE-16 (50 μg/ml) was added to a final volume of 50 μl. The reaction was recorded via relative fluorescence intensity ratio of 527 nm/477 nm (RFU). The final inhibition rate of the compound for ATG4 was calculated as: (RFUcompound-RFUNC)/(RFUCON-RFUNC) × 100%; respectively, NC as negative control without inhibitor, CON as control without enzymes. For ATG4 activity determination in cells and tissues, cells or separated tumor samples were homogenized in a native lysis buffer (150 mM NaCl, 20 mM Tris–HCl, pH 7.6, 1% TritonX-100, 1 mM EDTA) without protease inhibitors. Then 5 μg total proteins from each sample was added into FRET assay system after clean supernatant proteins were separated. The reaction was recorded via relative fluorescence intensity ratio of 527 nm/477 nm. Finally, the inhibition rates of ATG4B were calculated with the vehicle or CM group as the negative control (ATG4 activity defined as 100%).

## O=c1c2ccccc2[se]n1-c1ccccc1 [Ebselen]
ATG4B [1]
  ATG4B oligomerization: oligomerization occurred
HCT116
  number of endogenous LC3B dots: decreased
ATG4B [2]
  covalent binding to ATG4B: covalently binds to ATG4B
WT and ATG4B KO HCT116
  apoptosis (cleaved PARP): did not show any increase in apoptosis
[3]; 5 mg/kg i.p. every two days
  anti-tumor effect: obvious anti-tumor effect
[3]; 5, 10, 20 mg/kg i.p. every two days, compared with vehicle
  growth of tumors: significantly suppress the growth of tumors
Xenografted tumors; Ebselen 10 mg/kg, immunohistochemistry
  Ki67 positivity in tumors: significant reduction of Ki67 positivity
Xenografted tumors; compared with the vehicle group
  autophagy flux in tumors (LC3-II, p62): significantly inhibited
Xenografted tumors; western blot
  apoptosis of tumors: inhibited the apoptosis of tumors in a dose-dependent manner
HCT116 based xenograft
  tumor suppression: slightly weaker potential for tumor suppression
[4]
  activity of ATG4 in tumors: significantly inhibited in a dose-dependent manner
